# Data from patent US4031218A, “7-(2,3-Dihydroxypropyl-1,3-di-n-propylxanthine and a pharmaceutical composition containing same useful as a bronchial muscle relaxant” (Mallinckrodt, Inc., priority 1976, dated 1977).
# Assays:
# [1] = test system: histamine-induced bronchospasm; assay: Protection against histamine aerosol in guinea pigs (in vivo bronchodilator); design: species or system guinea pig; conditions: relative to theophylline, molar basis; for Bronchodilator activity, In-Vivo I.P. (G. Pig), relative molar activity: 15-20 min after injection; for Bronchodilator activity, In-Vivo, Oral (G. Pig), relative molar activity: 35-40 min after gavage
# Method: With the exception of theophylline, all compounds were administered as the free base dissolved or suspended in appropriate aqueous vehicles. […] Final comparisons were always based on the calculated dose of theophylline. Because of obvious differences in molecular weights, all compounds were compared on a molar basis rather than on absolute weight.
# 2. Protection Against Histamine Aerosol
# Adult Camm English Short Hair male albino guinea pigs (270-600 gm.) were singularly confined in an inverted glass aquarium and continuously exposed to a finely atomized mist of 0.5% histamine diphosphate produced by a Devilbiss No. 40 nebulizer and compressed air at 300 mm. Hg. pressure. The period from the start of aerosolization until the appearance of ultimate collapse or convulsions is defined as the preconvulsive time and is relatively constant in the same animal. Preconvulsive times were determined for each dose of each compound in at least six guinea pigs. Control preconvulsive times were obtained three days prior to and three days following drug administration. Percent protection afforded by each compound was calculated by the formula:
# % Protection = (1- C/T) × 100
# where C is the average control preconvulsive time and T is the test preconvulsive time after compound administration, both in seconds.
# The PD50 of each experimental compound was determined after both intraperitoneal and oral administration. A minimum of 3 dose levels and 6 animals per dose were employed to obtain meaningful dose-response data. Protection was assessed 15-20 minutes after intraperitoneal injection and 35-40 minutes after oral gavage with a flexible plastic tube. Animals were fasted overnight prior to oral dosing. All compounds were administered in aqueous solution in concentrations commensurate to a proper volume dose. Guinea pigs were utilized between 1 and 3 times but no animal received the same compound twice in succession with a minimum of 3 days rest between doses.
# [2] = test system: dogs; assay: Intravenous cardiovascular evaluation in dogs; conditions: for CF (coronary flow) change / CO (cardiac output) change / CW (cardiac work) change / HR (heart rate) change / MAP (mean arterial pressure) change / MCF (myocardial contractile force) change / TPR (total peripheral resistance) change / Cardiovascular effects (Mean): i.v. dogs, estimated at HBD; for I.V. Cardiovascular (Dogs), mean relative molar activity: mean for arterial pressure, heart rate, contractile force, cardiac output, stroke volume, cardiac work, TPR, coronary flow and resistance, relative to theophylline; for Cardiovascular effects (Mean): mean of the cardiovascular changes
# [3] = Solubility; conditions: for Solubility in words: water solubility, qualitative
# [4] = test system: mice; assay: Voluntary motor activity in mice (CNS stimulation); assay type: in vivo, male albino Swiss mice; conditions: for I.P. CNS Stimulation (Mice), relative molar activity: relative to theophylline, molar basis; for CNS Activity, I.P. Mice / CNS Activity, I.P. Mice, change: estimated at HBD; for CNS Activity, I.P. Mice, change: voluntary motor activity
# Method: F. Voluntary Motor Activity Studies in Mice In an attempt to quantitatively assess central nervous system activity, each compound was evaluated for its influence on voluntary motor activity in mice according to the method described by Dews (British J. Pharmacol. 8:46, 1953). Three cylindrical actophotometer cages were utilized simultaneously, each with six light beams and six photoelectric cells. Individual digital counters were connected to each activity cage. Male albino Swiss mice with weights ranging between 19 and 24 gm were used throughout. Compounds were dissolved in distilled water and were injected intraperitoneally in logarithmically spaced doses to groups of five mice, three groups per dose level. Control groups received saline.
# [5] = test system: dogs; assay: Oral minimum emetic dose in dogs; assay type: in vivo, dog; conditions: for Emetic effect, P.O. Dogs: estimated at HBD; for Oral Emetic (Dogs), relative molar activity: relative to theophylline, molar basis
# Method: 2. Oral Minimum Emetic Dose
# The minimum dose of each compound which causes emesis after oral administration was estimated in a group of five adult mongrel dogs of either sex. Logarithmically increasing or decreasing (depending upon response) doses of each compound were administered orally via a flexible stomach tube. The compounds were dissolved in distilled water in concentrations to allow a constant volume dose of 5 ml/kg. […] Onset, frequency, and duration of emetic episodes as well as signs of CNS stimulation were also recorded.
# [6] = Summary of relative molar activities (means and therapeutic efficacy); conditions: for Therapeutic Efficacy: mean bronchodilator (therapeutic) activity divided by mean acute toxic and side effect activity; for Mean acute toxicity and side effect activity (relative molar): mean of acute toxicity and side effect lines of Table I; for Mean acute toxicity and side effect activity (relative molar) / Mean bronchodilator activity (relative molar): relative to theophylline; for Mean bronchodilator activity (relative molar): mean of bronchodilator lines of Table I
# [7] = test system: dogs; assay: Acute intravenous diuretic evaluation in dogs; conditions: for Diuretic Activity, I.V. Dogs: estimated at HBD; for I.V. Diuretic (Dogs), relative molar activity: relative to theophylline, molar basis
# [8] = test system: human bronchodilator; assay: Estimated human bronchodilator dose equivalent to recommended theophylline dose; conditions: based on recommended theophylline dose and relative bronchodilator activities
# Source text: Experimental results are summarized in Table I wherein pharmacologic and toxicologic activities relative to that of theophylline are expressed on a molar basis.
# ^a - Dose: Based on the recommended dose for theophylline and the
# relative activities in the bronchodilator experiments.
# [9] = test system: rats; assay: Acute oral diuretic evaluation in rats; assay type: in vivo, Sprague Dawley rats; conditions: relative to theophylline, molar basis
# Method: 1. Acute Oral Evaluation in Rats
# The oral diuretic effect of each compound was estimated in rats by a modification of the method described by Lipschitz et al. (J. Pharmacol. Exp. Ther. 79:97, 1943). Male Sprague Dawley rats (Carworth) weighing between 153 and 220 gms were fasted overnight. Groups of five animals each were administered three appropriate logarithmically spaced doses of each compound dissolved in saline in a constant volume dose of 25 ml/kg via an oral feeding needle. Controls received the same dose of only saline. The rats were then placed in individual metabolism cages and deprived of food and water for the remainder of the experiment. At the end of six hours, each rat was forced to expel urine in the bladder by pulling on the base of the tail. Parameters measured included urine volume, pH, and sodium and potassium excretion as measured by atomic absorption analysis. Six hour values were averaged for each dose of compound and for controls and were compared accordingly.
# [10] = prior art statement; cited from earlier work
# [11] = Bronchodilator activity; conditions: compared with theophylline
# [12] = test system: isolated rabbit heart; assay: Isolated rabbit heart preparation (Langendorff); assay type: cell-based; conditions: mean for myocardial contractile force, heart rate, coronary flow; relative to theophylline
# Method: 2. Isolated Rabbit Heart Preparation
# In-vitro cardiodynamic activity of each compound except dyphylline was determined on the spontaneously beating isolated rabbit heart by the Langendorff method as modified by Anderson and Craver (J. Pharmacol. Exp. Ther., 93:135, 1948). After securing the extracted heart's ascending aorta to the apparatus, the coronaries were continuously perfused with aerated Chenoweth's solution (Chenoweth and Koelle, J. Lab. Clin. 31:600, 1946) maintained at a constant pressure-head and temperature of 38° C. The effects of logarithmically increasing doses of each compound were determined on contractile force, heart rate, and coronary flow. Drugs were dissolved in minimal volumes of Chenoweth's solution and injected into the downspout containing perfusate at 5-10 minute intervals.
Structure (SMILES),"Bronchodilator activity, In-Vivo I.P. (G. Pig), relative molar activity [1]","Bronchodilator activity, In-Vivo, Oral (G. Pig), relative molar activity [1]",CF (coronary flow) change [2],CO (cardiac output) change [2],CW (cardiac work) change [2],HR (heart rate) change [2],MAP (mean arterial pressure) change [2],MCF (myocardial contractile force) change [2],TPR (total peripheral resistance) change [2],"I.V. Cardiovascular (Dogs), mean relative molar activity [2]",Cardiovascular effects (Mean) [2],solubility ([3]; water) [mg/mL],"I.P. CNS Stimulation (Mice), relative molar activity [4]","MED (minimum emetic dose), P.O. Dogs [5] [mg/kg]","Emetic effect, P.O. Dogs [5]","Oral Emetic (Dogs), relative molar activity [5]",Therapeutic Efficacy [6],Mean acute toxicity and side effect activity (relative molar) [6],Mean bronchodilator activity (relative molar) [6],"Diuretic Activity, I.V. Dogs [7]",further results
"Cn1c(=O)c2c(ncn2CC(O)CO)n(C)c1=O (stereo not shown) [Compound II, 7-(2,3-dihydroxypropyl) 1,3-dimethylxanthine]",0.12,0.13,+10 %Δ,-15 %Δ,-30 %Δ,+11 ΔBPM,-20 ΔmmHg,-5 %Δ,+3 %Δ,0.36,13,330,0.18,> 362,None,< 0.50,2.31,0.26,0.60,Moderate,"I.V. Diuretic (Dogs), relative molar activity [7]: 0.26; Estimated Human Bronchodilator Dose (HBD), per 70 kg [8]: 2353 mg/70 kg; Estimated Human Bronchodilator Dose (HBD), per kg [8]: 33.6 mg/kg; Oral Diuretic (Rats), relative molar activity [9]: 0.71; Side effects / tolerance in words (prior art) [10]: few of the usual theophylline-like side effects"
"CCCn1c(=O)c2c(ncn2CC(O)CO)n(CCC)c1=O (stereo not shown) [Compound V, 7-(2,3-dihydroxypropyl)-1,3-di-n-propylxanthine]",1.56,0.75,+17 %Δ,+6 %Δ,+2 %Δ,+7 ΔBPM,-5 ΔmmHg,+15 %Δ,-9 %Δ,0.91,9,100,0.30,442,None,0.50,2.51,0.70,1.76,Mild,"Bronchodilator potency in words [11]: comparable to theophylline as a bronchodilator; solubility ([3]; chloroform, organic solvent or mixture): ~310 mg/mL; Solubility in words [3]: considerably more water soluble than theophylline; CNS Activity, I.P. Mice [4]: None; CNS Activity, I.P. Mice, change [4]: -1 %Δ; I.V. Diuretic (Dogs), relative molar activity [7]: 0.59; In-Vitro; MCF, HR, CF (Rabbit Heart), mean relative molar activity [12]: 0.93; Estimated Human Bronchodilator Dose (HBD), per 70 kg [8]: 299 mg/70 kg; Estimated Human Bronchodilator Dose (HBD), per kg [8]: 4.3 mg/kg; Oral Diuretic (Rats), relative molar activity [9]: 1.05"
"CCCn1c(=O)c2c(ncn2CC(C)O)n(CCC)c1=O (stereo not shown) [III, 7-(2-hydroxypropyl) 1,3-di-n-propylxanthine]",3.26,3.30,+8 %Δ,+10 %Δ,+2 %Δ,+21 ΔBPM,-8 ΔmmHg,+28 %Δ,-15 %Δ,1.16,13,10,1.73,0.8,Severe,251.00,0.09,36.55,3.46,Mild,"Bronchodilator potency in words [11]: more potent bronchodilators than theophylline; Solubility in words [3]: low solubilities; CNS Activity, I.P. Mice [4]: Severe; CNS Activity, I.P. Mice, change [4]: -60 %Δ; I.V. Diuretic (Dogs), relative molar activity [7]: 0.50; In-Vitro; MCF, HR, CF (Rabbit Heart), mean relative molar activity [12]: 1.40; Estimated Human Bronchodilator Dose (HBD), per 70 kg [8]: 99 mg/70 kg; Estimated Human Bronchodilator Dose (HBD), per kg [8]: 1.4 mg/kg; Oral Diuretic (Rats), relative molar activity [9]: 7.29; Side effects / tolerance in words (prior art) [10]: well tolerated"
